Experimental data as given in ChEMBL document CHEMBL6182863, “Discovery of novel rigid STING PROTAC degraders as potential therapeutics for acute kidney injury” (Eur J Med Chem, 2025).
The source made the active and inactive calls. The calls are words filed in the database; no cut-off is given here.

Columns and labels:
[1] = target: T1, Protein cereblon/Stimulator of interferon genes protein (Homo sapiens, UniProt Q96SW2+Q86WV6); test: PROTAC activity at CRBN/STING in human THP-1 cells assessed as induction of STING degradation by Western blotting analysis; format: cell-based; conditions: time 1-48 hrs
T1 sequence (Q86WV6 whole entry, looked up): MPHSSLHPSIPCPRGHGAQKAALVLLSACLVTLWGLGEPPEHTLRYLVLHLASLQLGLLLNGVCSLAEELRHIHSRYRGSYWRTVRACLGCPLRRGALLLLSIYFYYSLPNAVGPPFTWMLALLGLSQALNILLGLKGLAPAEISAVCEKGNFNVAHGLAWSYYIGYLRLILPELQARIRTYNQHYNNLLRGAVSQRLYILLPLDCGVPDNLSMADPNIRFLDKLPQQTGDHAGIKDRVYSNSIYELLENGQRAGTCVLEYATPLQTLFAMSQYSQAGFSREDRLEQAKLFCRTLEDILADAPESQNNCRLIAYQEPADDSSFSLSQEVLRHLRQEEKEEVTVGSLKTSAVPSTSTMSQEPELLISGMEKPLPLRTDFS
T1 sequence (Q96SW2 whole entry, looked up): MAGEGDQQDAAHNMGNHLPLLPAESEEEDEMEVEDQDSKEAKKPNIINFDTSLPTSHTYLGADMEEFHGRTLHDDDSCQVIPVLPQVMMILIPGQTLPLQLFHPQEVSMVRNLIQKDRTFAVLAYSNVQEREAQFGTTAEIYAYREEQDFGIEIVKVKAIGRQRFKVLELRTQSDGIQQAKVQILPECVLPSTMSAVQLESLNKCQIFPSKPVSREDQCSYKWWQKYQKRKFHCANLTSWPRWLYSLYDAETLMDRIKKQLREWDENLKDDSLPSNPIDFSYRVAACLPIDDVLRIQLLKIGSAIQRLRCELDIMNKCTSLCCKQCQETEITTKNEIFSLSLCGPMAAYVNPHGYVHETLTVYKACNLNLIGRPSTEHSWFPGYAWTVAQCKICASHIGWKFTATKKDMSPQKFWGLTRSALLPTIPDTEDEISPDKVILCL

[2] = target: T1, Protein cereblon/Stimulator of interferon genes protein; test: PROTAC activity at CRBN/STING in human THP-1 cells assessed as induction of STING degradation at 5 uM incubated for 24 hrs in presence of MG132 by Western blotting analysis; format: cell-based
HK-2 [3] = test: Inhibition of STING downstream signal pathway in cisplatin stimulated human HK-2 cells assessed as reduction in STING protein level at 1.25 to 5 uM pretreated with cisplatin followed by compound addition by Western blotting analysis; format: cell-based; conditions: dose 1.25-5 µM
HK-2 [4] = test: Inhibition of STING downstream signal pathway in cisplatin stimulated human HK-2 cells assessed as reduction in p-IRF3 level by […] analysis; format: cell-based; conditions: dose 1.25-5 µM
THP-1 = test: PROTAC activity at CRBN/AKT in human THP-1 cells assessed as induction of AKT degradation at 1.25 to 20 uM measured after 24 hrs by Western blotting analysis; format: cell-based; conditions: dose 1.25-20 µM
[5] = Cytotoxicity against rat BRL-3A cells assessed as reduction in cell viability at 0.5 to 120 uM incubated for 24 hrs by MTT assay; format: toxicity, cell-based; conditions: dose 0.5-120 µM
[6] = Acute toxicity in C57BL/6J mouse assessed as change in body weight at 125 mg/kg; format: organism-based; conditions: in vivo
[7] = Acute toxicity in C57BL/6J mouse assessed as change in body weight at 179 mg/kg; format: organism-based; conditions: in vivo
[8] = Metabolic stability in human liver microsomes assessed as half life; format: ADME, Microsome
[9] = Metabolic stability in human liver microsomes assessed as intrinsic clearance per gram of protein; format: ADME, Microsome
[10] = Half life in male Sprague-Dawley rat at 2 mg/kg, iv measured after 12 hrs by LC-MS/MS analysis; format: ADME, organism-based; conditions: in vivo
[11] = Tmax in male Sprague-Dawley rat at 2 mg/kg, iv measured after 12 hrs by LC-MS/MS analysis; format: ADME, organism-based; conditions: in vivo
[12] = Clearance in male Sprague-Dawley rat at 2 mg/kg, iv measured after 12 hrs by LC-MS/MS analysis; format: ADME, organism-based; conditions: in vivo
[13] = Toxicity in cisplatin-induced acute kidney injury C57BL/6J mouse model assessed as morphological abnormality in spleen at 25 to 50 mg/kg, ip by H and E staining based analysis; format: organism-based; conditions: in vivo, dose 25-50 mg/kg
Mus musculus [14] = test: Renoprotective activity against cisplatin-induced C57BL/6J mouse acute kidney injury model assessed as recovery of body weight administered intraperitoneally and measured after 72 hrs; format: functional, organism-based; conditions: dose 25-50 mg/kg, route ip
Mus musculus [15] = test: Renoprotective activity against cisplatin-induced C57BL/6J mouse acute kidney injury model assessed as decrease in disease activity index score at 25 to 50 mg/kg, ip measured after 72 hrs; format: functional, organism-based; conditions: dose 25-50 mg/kg
Mus musculus [16] = test: Renoprotective activity against cisplatin-induced C57BL/6J mouse acute kidney injury model assessed as reduction in BUN level at 25 to 50 mg/kg, ip measured after 72 hrs; format: functional, organism-based; conditions: dose 25-50 mg/kg
Mus musculus [17] = test: Renoprotective activity against cisplatin-induced C57BL/6J mouse acute kidney injury model assessed as reduction in creatinine level at 25 to 50 mg/kg, ip measured after 72 hrs; format: functional, organism-based; conditions: dose 25-50 mg/kg
Mus musculus [18] = test: Renoprotective activity against cisplatin-induced C57BL/6J mouse acute kidney injury model assessed as decrease in fecal viscosity at 25 to 50 mg/kg, ip measured after 72 hrs; format: functional, organism-based; conditions: dose 25-50 mg/kg
[19] = target: T2, Protein cereblon/Stimulator of interferon genes protein (Mus musculus) (UniProt Q3TBT3+Q8C7D2); test: In vivo inhibition of STING/TBK1/NF-kappaB signaling in C57BL/6J mouse assessed as decrease in STING protein level in kidney at 25 to 50 mg/kg, ip measured after 72 hrs by Western blotting analysis; format: functional, organism-based; conditions: dose 25-50 mg/kg
T2 sequence (Q3TBT3 whole entry, looked up): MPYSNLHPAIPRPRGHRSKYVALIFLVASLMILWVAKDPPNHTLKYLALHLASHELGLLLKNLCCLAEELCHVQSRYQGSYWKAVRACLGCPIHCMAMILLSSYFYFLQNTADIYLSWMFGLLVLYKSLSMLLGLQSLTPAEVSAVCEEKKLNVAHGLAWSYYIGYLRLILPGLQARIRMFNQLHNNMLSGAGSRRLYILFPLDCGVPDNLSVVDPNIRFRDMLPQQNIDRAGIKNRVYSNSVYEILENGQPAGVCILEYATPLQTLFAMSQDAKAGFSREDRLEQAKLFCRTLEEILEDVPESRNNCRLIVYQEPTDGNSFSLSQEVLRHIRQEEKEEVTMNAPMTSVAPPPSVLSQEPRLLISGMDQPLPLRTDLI
T2 sequence (Q8C7D2 whole entry, looked up): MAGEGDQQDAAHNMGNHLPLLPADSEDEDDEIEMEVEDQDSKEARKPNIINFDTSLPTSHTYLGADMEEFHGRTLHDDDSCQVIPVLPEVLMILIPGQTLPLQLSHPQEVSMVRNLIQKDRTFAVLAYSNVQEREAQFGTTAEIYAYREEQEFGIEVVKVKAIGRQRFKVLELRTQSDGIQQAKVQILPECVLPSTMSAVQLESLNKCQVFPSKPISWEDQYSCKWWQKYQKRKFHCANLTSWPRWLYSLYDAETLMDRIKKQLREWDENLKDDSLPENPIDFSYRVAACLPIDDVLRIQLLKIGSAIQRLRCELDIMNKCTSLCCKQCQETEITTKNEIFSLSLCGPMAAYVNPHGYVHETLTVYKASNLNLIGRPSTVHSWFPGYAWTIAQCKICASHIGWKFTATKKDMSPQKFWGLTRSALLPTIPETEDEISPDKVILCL

[20] = target: T2, Protein cereblon/Stimulator of interferon genes protein (Mus musculus); test: In vivo inhibition of STING/TBK1/NF-kappaB signaling in C57BL/6J mouse assessed as decrease in P-TBK1 protein level in kidney at 25 to 50 mg/kg, ip measured after 72 hrs by Western blotting analysis; format: functional, organism-based; conditions: dose 25-50 mg/kg
[21] = target: T2, Protein cereblon/Stimulator of interferon genes protein (Mus musculus); test: In vivo inhibition of STING/TBK1/NF-kappaB signaling in C57BL/6J mouse assessed as decrease in P-P65 protein level in kidney at 25 to 50 mg/kg, ip measured after 72 hrs by Western blotting analysis; format: functional, organism-based; conditions: dose 25-50 mg/kg
[22] = target: T2, Protein cereblon/Stimulator of interferon genes protein (Mus musculus); test: In vivo inhibition of STING/TBK1/NF-kappaB signaling in C57BL/6J mouse assessed as decrease in serum IL-6 level at 25 to 50 mg/kg, ip measured after 72 hrs by ELISA; format: functional, organism-based; conditions: dose 25-50 mg/kg
Mus musculus [23] = test: Renoprotective activity against cisplatin-induced C57BL/6J mouse model assessed as reduction in renal injury administered intraperitoneally by H and E staining based analysis; format: functional, organism-based; conditions: dose 25-50 mg/kg, route ip

Structure (SMILES): O=C(/C=C/C(=O)N1CCN(CC2CCN(c3cccc4c3C(=O)N(C3CCC(=O)NC3=O)C4=O)C2)CC1)Nc1ccc(NC(=O)c2ccc([N+](=O)[O-])o2)cc1 (centres undefined)
- Activity [1]: Time-dependent-effect
- Activity [2]: inactive
- inhibition (HK-2 [3]): Active
- inhibition (HK-2 [4]): Dose-dependent-effect
- Activity (THP-1): inactive
- Activity [5]: Non-toxic
- Activity [6]: 23.4 g
- Activity [7]: 22.8 g
- half-life [8]: 20.1 min
- CLint [9]: 104 mL/min/g
- half-life [10]: 51.6 min
- Tmax [11]: 4.8 min
- CL [12]: 53.3 mL/min/kg
- Activity [13]: Non-toxic
- Activity (Mus musculus [14]): Dose-dependent-effect
- Activity_index (Mus musculus [15]): Active
- Activity (Mus musculus [16]): Active
- Activity (Mus musculus [17]): Active
- Activity (Mus musculus [18]): Active
- inhibition [19]: Active
- inhibition [20]: Active
- inhibition [21]: Active
- inhibition [22]: Active
- Activity (Mus musculus [23]): Dose-dependent-effect
